Patent US20230000813A1, “COMPOUND FOR THE TREATMENT OF BOVINE OR SWINE RESPIRATORY DISEASE” (Intervet Inc., priority 2016, published 2023)
In brackets after ≈: the same amount, converted by molar mass.

Key:
Test in all cases: MIC, broth-microdilution (CLSI VET01-A4)
Assay type in all cases: cell-based
[1] = tested on: Mannheimia haemolytica MH 13065 (XB0446-6003.9, BRD field isolate)
Method in brief: (§1)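 Broth microdilution per CLSI VET01-A4 using doubling dilution series of compound. MIC taken as the lowest concentration with no turbidity visible to the unaided eye, interpreted per CLSI VET01-S3.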

[2] = tested on: Mannheimia haemolytica MH 13093 (XB0472-6014.1, BRD field isolate)
Method in brief: as §1

[3] = tested on: Mannheimia haemolytica MH 10720 (154, BRD field isolate); settings: Mannheimia haemolytica MH 10720
Method in brief: (§2)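 Test compound is serially diluted twofold across microdilution trays, bacteria are grown, and wells are inspected by eye. The lowest concentration showing no growth is recorded as the MIC.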

[4] = tested on: Mannheimia haemolytica MH 6357 (M7/2, reference strain, cattle infection strain); settings: Mannheimia haemolytica MH 6357; read-out: MIC MH 6357
Method in brief: as §2

[5] = tested on: Pasteurella multocida PM 12080 (IV102277-0093, BRD field isolate); settings: Pasteurella multocida PM 12080
Method in brief: as §2

[6] = tested on: Pasteurella multocida PM 10775 (080130003051, BRD field isolate); settings: Pasteurella multocida PM 10775
Method in brief: as §2

[7] = tested on: Pasteurella multocida PM 6267 (P 2225 (L386), reference strain, mouse infection strain); settings: Pasteurella multocida PM 6267
Method in brief: as §2

[8] = tested on: Pasteurella multocida PM 6391 (ATCC 43137, reference strain); settings: Pasteurella multocida PM 6391
Method in brief: as §2

[9] = tested on: Mannheimia haemolytica MH 12587 (1071, BRD field isolate, macrolide-resistance: erm+, E+); settings: Mannheimia haemolytica MH 12587, macrolide-resistant
Method in brief: as §2

[10] = tested on: Mannheimia haemolytica MH 6374 (ATCC 33396, reference strain); settings: Mannheimia haemolytica MH 6374; read-out: MIC MH 6374
Method in brief: as §2

CC(C)([C@H](NC(=O)c1ccc(C#Cc2ccc(CNCc3cccs3)cc2)cc1)C(=O)NO)S(C)(=O)=O [Compound 617]
MIC [1]: 0.2 µM (≈ 0.108 µg/mL) | MIC [2]: 0.4 µM (≈ 0.216 µg/mL) | MIC MH 10720 [3]: <=0.1 μM | MIC [4]: 0.4 µM (≈ 0.216 µg/mL) | MIC PM 12080 [5]: <=0.1 μM | MIC PM 10775 [6]: <=0.1 μM | MIC PM 6267 [7]: <=0.1 μM | MIC PM 6391 [8]: <=0.1 μM | MIC MH 12587 [9]: 0.8 µM (≈ 0.432 µg/mL) | MIC [10]: 0.2 µM (≈ 0.108 µg/mL)
